The target in one experiment is PtGSTU19 (Populus trichocarpa, UniProt B9HKX9). Nature of the experiment: Peroxidase activity, NADPH coupled spectrophotometric assay. The experiment is classed as biochemical.
For the next experiment, the target named is PtGSTU20 (Populus trichocarpa, UniProt D2X9R3). The experiment is described as above. Type of experiment: biochemical.
The next experiment concerns the target PtGSTU19Y160A (Populus trichocarpa, UniProt B9HKX9, Y160A). As to conditions: PtGSTU19 Y160A, peroxidase activity, mean ± S.D., n = 3.
For another experiment, the target named is PtGSTU19Y160C (Populus trichocarpa, UniProt B9HKX9, Y160C). The settings on record: PtGSTU19 Y160C, peroxidase activity, mean ± S.D., n = 3.
Sequence of PtGSTU19Y160C (B9HKX9 2-219 Y160C): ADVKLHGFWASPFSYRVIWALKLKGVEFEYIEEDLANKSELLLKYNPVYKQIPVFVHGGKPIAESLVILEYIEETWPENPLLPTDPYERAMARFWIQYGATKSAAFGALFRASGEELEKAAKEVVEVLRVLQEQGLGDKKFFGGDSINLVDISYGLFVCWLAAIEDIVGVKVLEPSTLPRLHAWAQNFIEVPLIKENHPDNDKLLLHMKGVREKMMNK
The next experiment has as its target PtGSTU19Y160F (Populus trichocarpa, UniProt B9HKX9, Y160F). The settings on record: PtGSTU19 Y160F, peroxidase activity, mean ± S.D., n = 3.
A further experiment addresses PtGSTU20C160Y (Populus trichocarpa, UniProt D2X9R3, C160Y). The settings on record: PtGSTU19 C160Y in Table S4, peroxidase activity, mean ± S.D., n = 3.
[1] abbreviates: enzyme concentration increased up to 10 µM.
Setting [2] is: peroxidase activity, 1 mM GSH, pH 8.0, mean ± S.D., n = 3.
Where [3] appears, read: read-out: apparent K m, peroxidase activity, 1 mM GSH, pH 8.0, mean ± S.D., n = 3.

The structures appear in SMILES notation.

Sequence of PtGSTU19 (B9HKX9 entry or part of it): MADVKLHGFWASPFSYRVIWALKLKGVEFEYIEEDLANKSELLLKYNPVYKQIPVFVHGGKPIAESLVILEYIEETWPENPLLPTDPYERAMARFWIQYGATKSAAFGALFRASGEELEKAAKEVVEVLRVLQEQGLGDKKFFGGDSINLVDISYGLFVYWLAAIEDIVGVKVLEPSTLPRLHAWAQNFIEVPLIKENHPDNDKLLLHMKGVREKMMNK
Sequence of PtGSTU20 (D2X9R3 entry or part of it): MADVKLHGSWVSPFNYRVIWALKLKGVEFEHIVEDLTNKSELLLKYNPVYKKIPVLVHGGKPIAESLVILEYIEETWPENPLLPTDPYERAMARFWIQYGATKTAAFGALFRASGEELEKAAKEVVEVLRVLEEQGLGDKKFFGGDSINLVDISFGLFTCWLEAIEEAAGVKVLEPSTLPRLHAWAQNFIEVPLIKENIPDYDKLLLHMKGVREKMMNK
Sequence of PtGSTU20C160Y (D2X9R3 2-219 C160Y): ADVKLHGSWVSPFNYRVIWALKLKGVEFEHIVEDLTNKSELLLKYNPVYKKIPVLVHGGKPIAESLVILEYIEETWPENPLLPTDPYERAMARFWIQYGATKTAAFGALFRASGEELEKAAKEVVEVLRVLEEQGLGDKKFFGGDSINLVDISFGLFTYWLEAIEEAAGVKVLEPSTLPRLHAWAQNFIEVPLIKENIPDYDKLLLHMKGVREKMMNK
Sequence of PtGSTU19Y160F (B9HKX9 2-219 Y160F): as the sequence (B9HKX9 2-219 Y160C) above, with C159F counted along it
Sequence of PtGSTU19Y160A (B9HKX9 2-219 Y160A): as the sequence (B9HKX9 2-219 Y160C) above, with C159A counted along it
Experimental for PtGSTU19Y160A: (§1) Peroxidase activity toward hydroperoxides was measured using an NADPH coupled spectrophotometric assay ([Pégeot et al., 2014]).
(§2) The measured velocities were corrected by subtracting the rate of the spontaneous nonenzymatic reaction, and three independent experiments were performed at each substrate concentration.
Experimental for PtGSTU19Y160C: as §1, §2
Experimental for PtGSTU19Y160F: as §1, §2
Experimental for PtGSTU20C160Y: as §1, §2

On to `CC(C)(OO)c1ccccc1` [CuOOH, cumene hydroperoxide], for which the “Peroxidase activity (active on the peroxide)” value at PtGSTU19 (setting [1]) and at PtGSTU20 (setting [1]) was “weakly active” throughout. In addition, the Catalytic efficiency on PtGSTU19 (peroxidase activity) is 800 M⁻¹ s⁻¹; on PtGSTU20 (peroxidase activity), 2400 M⁻¹ s⁻¹. For the same molecule, the k cat on PtGSTU19 (setting [2]) amounted to 0.17 ± 0.01 s⁻¹; on PtGSTU20 (setting [2]), 0.24 ± 0.01 s⁻¹; at PtGSTU19Y160A, 0.33 ± 0.02 s⁻¹; at PtGSTU19Y160C, 0.45 ± 0.03 s⁻¹; at PtGSTU19Y160F, 0.49 ± 0.01 s⁻¹; at PtGSTU20C160Y, 0.14 ± 0.01 s⁻¹. In addition, the results for the “k cat/K m” value at PtGSTU19 (setting [2]) and on PtGSTU20 (setting [2]) were 0.85 ± 0.04 10^3 M^-1s^-1 and 2.4 ± 0.1 10^3 M^-1s^-1, respectively. Also, the Km was found to be 197 ± 31.1 µM on PtGSTU19 (setting [3]); 98.6 ± 15.4 µM on PtGSTU20 (setting [3]); 701 ± 82.7 µM at PtGSTU19Y160A (read-out: apparent KM); 1260 ± 140 µM on PtGSTU19Y160C (read-out: apparent KM); 347 ± 34.6 µM at PtGSTU19Y160F (read-out: apparent KM); 491 ± 97.5 µM at PtGSTU20C160Y (read-out: apparent KM).

The values are drawn from paper PMC9412104, “Biochemical and Structural Insights on the Poplar Tau Glutathione Transferase GSTU19 and 20 Paralogs Binding Flavonoids” (Frontiers in Molecular Biosciences, 2022).
